Columns and labels:
[1] = test system: Puccinia recondita f. Sp. Tritici; assay: Puccinia recondita f. sp. tritici / wheat / leaf disc preventative (brown rust); format: in vivo; settings: foliar, 168 h, 200 ppm in the applied formulation, wheat leaf segments cv. Kanzler, preventative, inoculated 1 day after application, assessed 7 to 9 days after application, vs untreated, read-out: disease control
Method in brief: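 Preventative leaf-segment test: spray application of diluted formulated compound on wheat cv. Kanzler, spore inoculation after 1 day. Percent control relative to untreated segments rated 7 to 9 days post-application, with incubation at 19° C, 75% relative humidity, 12 h photoperiod.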

[2] = test system: Puccinia recondita f. Sp. Tritici; assay: Puccinia recondita f. sp. tritici / wheat / leaf disc curative (brown rust); format: in vivo; settings: foliar, 144 h, 200 ppm in the applied formulation, wheat leaf segments cv. Kanzler, applied 1 day after inoculation, assessed 6 to 8 days after application, vs untreated, read-out: disease control
Method in brief: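 Compounds, prepared from DMSO solutions of at most 10 mg/ml and diluted just before spraying, are applied curatively to inoculated Kanzler wheat leaf segments. Segments are incubated at 19° C and 75% RH in a climate cabinet; disease control relative to untreated is evaluated 6 to 8 days later.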

[3] = test system: Phakopsora pachyrhizi; assay: Phakopsora pachyrhizi / soybean / leaf disc preventative (Asian soybean rust); format: in vivo; settings: foliar, 288 h, 200 ppm in the applied formulation, soybean leaf disks, inoculated one day after application, assessed 12 to 14 days after application, vs untreated, read-out: disease control
Method in brief: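 Read-out is percent disease control relative to untreated check discs, assessed once untreated discs show adequate disease, 12 to 14 days after application. Compounds, tested at 200 ppm in the applied formulation, are sprayed onto soybean leaf discs one day before inoculation with a spore suspension.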

[4] = test system: Glomerella Lagenarium (Colletotrichum Lagenarium); assay: Glomerella lagenarium (Colletotrichum lagenarium) liquid culture / cucumber / preventative (anthracnose); format: cell-based; settings: Colletotrichum orbiculare; 20 ppm in the applied formulation; liquid culture in PDB, 24° C., inhibition of growth measured photometrically 3 to 4 days after application, vs untreated; read-out: disease control
Method in brief: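 Conidia from cryogenic storage were mixed into potato dextrose broth. This was added to compound diluted from DMSO into 0.025% Tween20, tested at 20 ppm. Plates were incubated in the dark at 24 °C and 96% relative humidity, and growth was read photometrically after 2–7 days as % activity versus untreated check.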

With `CC(C)Cc1cn(Cc2ccc(-c3noc(C(F)(F)F)n3)cc2)nn1` [Compound 1.26, 3-[4-[(4-isobutyltriazol-1-yl)methyl]phenyl]-5-(trifluoromethyl)-1,2,4-oxadiazole] the pest or weed control at 200 ppm [1] was ≥ 80%, the pest or weed control at 200 ppm [2] was ≥ 80% and the pest or weed control at 200 ppm [3] was ≥ 80%. The inhibition of growth at 20 ppm [4] was ≥ 80% and the melting point was 113.9 to 115.7 °C.

In the case of `CC(C)(C)c1cn(Cc2ccc(-c3noc(C(F)(F)F)n3)cc2)nn1` [Compound 1.27, 3-[4-[(4-tert-butyltriazol-1-yl)methyl]phenyl]-5-(trifluoromethyl)-1,2,4-oxadiazole], the pest or weed control at 200 ppm [1] is reported as ≥ 80%, the pest or weed control at 200 ppm [2] is reported as ≥ 80% and the pest or weed control at 200 ppm [3] is reported as ≥ 80%. The inhibition of growth at 20 ppm [4] was ≥ 80% and the melting point was 90.4 to 92.3 °C.

For `CC(C)(NC(=O)c1ccccc1)c1cn(Cc2ccc(-c3noc(C(F)(F)F)n3)cc2)nn1` [Compound 1.30, N-[1-methyl-1-[1-[[4-[5-(trifluoromethyl)-1,2,4-oxadiazol-3-yl]phenyl]methyl]triazol-4-yl]ethyl]benzamide], the pest or weed control at 200 ppm [1] was ≥ 80%, the pest or weed control at 200 ppm [2] was ≥ 80% and the pest or weed control at 200 ppm [3] was ≥ 80%. For the same compound, the inhibition of growth at 20 ppm [4] was ≥ 80% and the melting point was 157.6 to 161.9 °C.

In the case of `FC(F)(F)c1nc(-c2ccc(Cn3ccnn3)cc2)no1` [Compound 1.32, 3-[4-(triazol-1-ylmethyl)phenyl]-5-(trifluoromethyl)-1,2,4-oxadiazole], the pest or weed control at 200 ppm [1] is reported as ≥ 80%, the pest or weed control at 200 ppm [2] is reported as ≥ 80% and the pest or weed control at 200 ppm [3] is reported as ≥ 80%. The inhibition of growth at 20 ppm [4] was ≥ 80% and the melting point was 107.6 to 109.5 °C.

In the case of `FC(F)(F)c1nc(-c2ccc(Cn3nccn3)cc2)no1` [Compound 1.33, 3-[4-(triazol-2-ylmethyl)phenyl]-5-(trifluoromethyl)-1,2,4-oxadiazole], the pest or weed control at 200 ppm [1] is reported as ≥ 80%, the pest or weed control at 200 ppm [2] is reported as ≥ 80% and the pest or weed control at 200 ppm [3] is reported as ≥ 80%. The inhibition of growth at 20 ppm [4] was ≥ 80% and the melting point was 105.4 to 107.9 °C.

For `FC(F)(F)c1nc(-c2ccc(Cn3nc4ccccc4n3)cc2)no1` [Compound 1.34, 3-[4-(benzotriazol-2-ylmethyl)phenyl]-5-(trifluoromethyl)-1,2,4-oxadiazole], the pest or weed control at 200 ppm [1] was ≥ 80%, the pest or weed control at 200 ppm [2] was ≥ 80% and the pest or weed control at 200 ppm [3] was ≥ 80%. The inhibition of growth at 20 ppm [4] was ≥ 80% and the melting point was 112.4 to 116.6 °C.

In the case of `FC(F)(F)c1nc(-c2ccc(Cn3nnc4ccccc43)cc2)no1` [Compound 1.35, 3-[4-(benzotriazol-1-ylmethyl)phenyl]-5-(trifluoromethyl)-1,2,4-oxadiazole], the pest or weed control at 200 ppm [1] is reported as ≥ 80%, the pest or weed control at 200 ppm [2] is reported as ≥ 80% and the pest or weed control at 200 ppm [3] is reported as ≥ 80%. For the same compound, the inhibition of growth at 20 ppm [4] was ≥ 80% and the melting point was 142.3 to 143.2 °C.

In the case of `FC(F)(F)c1nc(-c2ccc(Cn3cncn3)c(Cl)c2)no1` [Compound 1.99, 3-[3-chloro-4-(1,2,4-triazol-1-ylmethyl)phenyl]-5-(trifluoromethyl)-1,2,4-oxadiazole], the pest or weed control at 200 ppm [1] is reported as ≥ 80%, the pest or weed control at 200 ppm [2] is reported as ≥ 80% and the pest or weed control at 200 ppm [3] is reported as ≥ 80%. The inhibition of growth at 20 ppm [4] was ≥ 80% and the melting point was 63 to 71 °C.

In the case of `Fc1cc(-c2noc(C(F)(F)F)n2)ccc1Cn1cncn1` [Compound 1.101, 3-[3-fluoro-4-(1,2,4-triazol-1-ylmethyl)phenyl]-5-(trifluoromethyl)-1,2,4-oxadiazole], the pest or weed control at 200 ppm [1] is reported as ≥ 80%, the pest or weed control at 200 ppm [2] is reported as ≥ 80% and the pest or weed control at 200 ppm [3] is reported as ≥ 80%. For the same compound, the inhibition of growth at 20 ppm [4] was ≥ 80% and the melting point was 52 to 63 °C.

In the case of `Cc1nn(Cc2ccc(-c3noc(C(F)(F)F)n3)cc2)c(C)c1C` [Compound 1.146, 5-(trifluoromethyl)-3-[4-[(3,4,5-trimethylpyrazol-1-yl)methyl]phenyl]-1,2,4-oxadiazole], the pest or weed control at 200 ppm [1] is reported as ≥ 80%, the pest or weed control at 200 ppm [2] is reported as ≥ 80% and the pest or weed control at 200 ppm [3] is reported as ≥ 80%. For the same compound, the inhibition of growth at 20 ppm [4] was ≥ 80% and the melting point was 99.4 to 102 °C.

For `O=C(c1cnn(Cc2ccc(-c3noc(C(F)(F)F)n3)cc2)c1)N1CCOCC1` [Compound 1.261, morpholino-[1-[[4-[5-(trifluoromethyl)-1,2,4-oxadiazol-3-yl]phenyl]methyl]pyrazol-4-yl]methanone], the pest or weed control at 200 ppm [1] was ≥ 80%, the pest or weed control at 200 ppm [2] was ≥ 80% and the pest or weed control at 200 ppm [3] was ≥ 80%. For the same compound, the inhibition of growth at 20 ppm [4] was ≥ 80% and the melting point was 125 to 135 °C.

With `CN(C)CCOC(=O)c1cnn(Cc2ccc(-c3noc(C(F)(F)F)n3)cc2)c1` [Compound 1.265, 2-(dimethylamino)ethyl 1-[[4-[5-(trifluoromethyl)-1,2,4-oxadiazol-3-yl]phenyl]methyl]pyrazole-4-carboxylate] the pest or weed control at 200 ppm [1] was ≥ 80%, the pest or weed control at 200 ppm [2] was ≥ 80% and the pest or weed control at 200 ppm [3] was ≥ 80%. For the same compound, the inhibition of growth at 20 ppm [4] was ≥ 80% and the melting point was 60 to 70 °C.

In the case of `COC(=O)c1cn(Cc2ccc(-c3noc(C(F)(F)F)n3)cc2)nn1` [Compound 1.270, methyl 1-[[4-[5-(trifluoromethyl)-1,2,4-oxadiazol-3-yl]phenyl]methyl]triazole-4-carboxylate], the pest or weed control at 200 ppm [1] is reported as ≥ 80%, the pest or weed control at 200 ppm [2] is reported as ≥ 80% and the pest or weed control at 200 ppm [3] is reported as ≥ 80%. The inhibition of growth at 20 ppm [4] was ≥ 80% and the melting point was 154 to 156 °C.

In the case of `O=Cc1cnn(Cc2ccc(-c3noc(C(F)(F)F)n3)cc2)c1` [Compound 1.273, 1-[[4-[5-(trifluoromethyl)-1,2,4-oxadiazol-3-yl]phenyl]methyl]pyrazole-4-carbaldehyde], the pest or weed control at 200 ppm [1] is reported as ≥ 80%, the pest or weed control at 200 ppm [2] is reported as ≥ 80% and the pest or weed control at 200 ppm [3] is reported as ≥ 80%. The inhibition of growth at 20 ppm [4] was ≥ 80% and the melting point was 91 to 96 °C.

With `CCNC(=O)c1cn(Cc2ccc(-c3noc(C(F)(F)F)n3)cc2)nn1` [Compound 1.274, N-ethyl-1-[[4-(5-(trifluoromethyl)-1,2,4-oxadiazol-3-yl]phenyl]methyl]triazole-4-carboxamide] the pest or weed control at 200 ppm [1] was ≥ 80%, the pest or weed control at 200 ppm [2] was ≥ 80% and the pest or weed control at 200 ppm [3] was ≥ 80%. The inhibition of growth at 20 ppm [4] was ≥ 80% and the melting point was 193 to 195 °C.

For `CON(C)C(=O)c1cn(Cc2ccc(-c3noc(C(F)(F)F)n3)cc2)nn1` [Compound 1.275, N-methoxy-N-methyl-1-[[4-[5-(trifluoromethyl)-1,2,4-oxadiazol-3-yl]phenyl]methyl]triazole-4-carboxamide], the pest or weed control at 200 ppm [1] was ≥ 80%, the pest or weed control at 200 ppm [2] was ≥ 80% and the pest or weed control at 200 ppm [3] was ≥ 80%. For the same compound, the inhibition of growth at 20 ppm [4] was ≥ 80% and the melting point was 135 to 137 °C.

In the case of `CONC(=O)c1cn(Cc2ccc(-c3noc(C(F)(F)F)n3)cc2)nn1` [Compound 1.277, N-methoxy-1-[[4-[5-(trifluoromethyl)-1,2,4-oxadiazol-3-yl]phenyl]methyl]triazole-4-carboxamide], the pest or weed control at 200 ppm [1] is reported as ≥ 80%, the pest or weed control at 200 ppm [2] is reported as ≥ 80% and the pest or weed control at 200 ppm [3] is reported as ≥ 80%. The inhibition of growth at 20 ppm [4] was ≥ 80% and the melting point was 198 to 200 °C.

In the case of `COC(=O)c1cnnn1Cc1ccc(-c2noc(C(F)(F)F)n2)cc1` [Compound 1.279, methyl 3-[[4-[5-(trifluoromethyl)-1,2,4-oxadiazol-3-yl]phenyl]methyl]triazole-4-carboxylate], the pest or weed control at 200 ppm [1] is reported as ≥ 80%, the pest or weed control at 200 ppm [2] is reported as ≥ 80% and the pest or weed control at 200 ppm [3] is reported as ≥ 80%. The inhibition of growth at 20 ppm [4] was ≥ 80% and the melting point was 103 to 107 °C.

For `CN(C)C(=O)c1cn(Cc2ccc(-c3noc(C(F)(F)F)n3)cc2)nn1` [Compound 1.280, N,N-dimethyl-1-[[4-[5-(trifluoromethyl)-1,2,4-oxadiazol-3-yl]phenyl]methyl]triazole-4-carboxamide], the pest or weed control at 200 ppm [1] was ≥ 80%, the pest or weed control at 200 ppm [2] was ≥ 80% and the pest or weed control at 200 ppm [3] was ≥ 80%. The inhibition of growth at 20 ppm [4] was ≥ 80% and the melting point was 168 to 170 °C.

In the case of `O=C(Nc1ccncc1)c1cn(Cc2ccc(-c3noc(C(F)(F)F)n3)cc2)nn1` [Compound 1.283, N-(4-pyridyl)-1-[[4-[5-(trifluoromethyl)-1,2,4-oxadiazol-3-yl]phenyl]methyl]triazole-4-carboxamide], the pest or weed control at 200 ppm [1] is reported as ≥ 80%, the pest or weed control at 200 ppm [2] is reported as ≥ 80% and the pest or weed control at 200 ppm [3] is reported as ≥ 80%. The inhibition of growth at 20 ppm [4] was ≥ 80% and the melting point was 204 to 206 °C.

In the case of `C#CCON=Cc1cnn(Cc2ccc(-c3noc(C(F)(F)F)n3)cc2)c1` [Compound 1.290, N-prop-2-ynoxy-1-[1-[[4-[5-(trifluoromethyl)-1,2,4-oxadiazol-3-yl]phenyl]methyl]pyrazol-4-yl]methanimine], the pest or weed control at 200 ppm [1] is reported as ≥ 80%, the pest or weed control at 200 ppm [2] is reported as ≥ 80% and the pest or weed control at 200 ppm [3] is reported as ≥ 80%. The inhibition of growth at 20 ppm [4] was ≥ 80% and the melting point was 57 to 63 °C.

— patent US10798941B2, “Microbiocidal oxadiazole derivatives” (SYNGENTA PARTICIPATIONS AG, priority 2016, dated 2020)
